Test results reported in PubChem BioAssay (NCI).
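Test compounds were applied to cells in 96-well plates for 48 hours at 5 doses. GI50: concentration for 50% inhibition of growth. TGI marks complete inhibition of growth.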

Tests used:
Experiment in all cases: inhibition of tumour cell growth, NCI panel, 48 h
786-0 renal = system: 786-0 renal
HCT-15 colon = system: HCT-15 colon
HL-60(TB) leukemia = system: HL-60(TB) leukemia
M14 melanoma = system: M14 melanoma
MALME-3M melanoma = system: MALME-3M melanoma
NCI-H23 lung = system: NCI-H23 lung
SK-MEL-28 melanoma = system: SK-MEL-28 melanoma
SNB-75 CNS = system: SNB-75 CNS
UACC-257 melanoma = system: UACC-257 melanoma
BT-549 breast = system: BT-549 breast

Structure (SMILES) | TGI (786-0 renal) | TGI (HCT-15 colon) | TGI (HL-60(TB) leukemia) | TGI (M14 melanoma) | TGI (MALME-3M melanoma) | TGI (NCI-H23 lung) | TGI (SK-MEL-28 melanoma) | TGI (SNB-75 CNS) | TGI (UACC-257 melanoma) | GI50 (786-0 renal) | GI50 (HCT-15 colon) | GI50 (HL-60(TB) leukemia) | GI50 (M14 melanoma) | GI50 (MALME-3M melanoma) | GI50 (NCI-H23 lung) | GI50 (SK-MEL-28 melanoma) | GI50 (SNB-75 CNS) | GI50 (UACC-257 melanoma) | GI50 (BT-549 breast) | TGI (BT-549 breast)
C#Cc1c(C)c(/C=C/C(C)=C/C=C/C(C)=C/C(=O)OC)n(C)c1C | > 100 µM | > 100 µM | > 100 µM | > 100 µM | > 100 µM | > 100 µM | > 100 µM | > 100 µM | > 100 µM | – | – | – | – | – | – | – | – | – | – | –
O=C1OC(c2ccccc2)=N/C1=C\c1ccc2ccccc2c1 | > 100 µM | > 100 µM | – | > 100 µM | > 100 µM | > 100 µM | > 100 µM | > 100 µM | > 100 µM | – | – | – | – | – | – | – | – | – | – | –
COCc1c(CO)cnc(C)c1OC1OC(CO)C(O)C(O)C1O (stereo not given) | > 100 µM | > 100 µM | – | > 100 µM | > 100 µM | – | > 100 µM | > 100 µM | > 100 µM | – | – | – | – | – | – | – | – | – | – | –
N.N.N.N.O=NN1CCCCCC1(P(=O)([O-])[O-])P(=O)([O-])[O-].[Pt+4].[Pt+4] | > 100 µM | > 100 µM | > 100 µM | > 100 µM | > 100 µM | > 100 µM | > 100 µM | > 100 µM | > 100 µM | > 100 µM | > 100 µM | > 100 µM | > 100 µM | > 100 µM | > 100 µM | > 100 µM | > 100 µM | > 100 µM | – | –
CC(/C=C/C(=O)c1sc(-n2nc(-c3ccccc3)cc2-c2ccccc2)nc1C)=C\c1ccccc1 | > 100 µM | 57.6 µM | > 100 µM | > 100 µM | > 100 µM | 68.1 µM | > 100 µM | – | > 100 µM | – | – | – | > 100 µM | – | – | > 100 µM | 28.4 µM | – | – | –
CCOC(CCCNCCCn1c2c(c3cc(OC)c(OC)cc3c1=O)C(=O)c1cc3c(cc1-2)OCO3)OCC | 10.6 µM | 12.3 µM | 11.1 µM | 11.1 µM | 13.6 µM | 11.7 µM | 12.5 µM | 10.3 µM | 13.7 µM | 4.35 µM | 6.1 µM | 5.25 µM | 5.25 µM | 6.77 µM | 5.65 µM | 6.22 µM | 0.443 µM | 7.21 µM | – | –
Cc1nnc(N=Nc2c(O)[nH]c3c(Cl)cc(Cl)cc23)n1N | > 100 µM | > 100 µM | > 100 µM | > 100 µM | > 100 µM | > 100 µM | > 100 µM | – | > 100 µM | – | – | – | – | – | – | – | – | – | – | –
COc1ccc(CCN2CCCN3C2=Nc2ccccc2S3(=O)=O)cc1 | > 100 µM | > 100 µM | – | > 100 µM | – | > 100 µM | > 100 µM | > 100 µM | – | 0.651 µM | 0.342 µM | – | 0.322 µM | – | 0.474 µM | 0.805 µM | 0.296 µM | – | 0.923 µM | 92.4 µM
O=C1Nc2cc(Cl)ccc2N=CC1NC(=O)C(c1ccccc1)c1ccccc1Cl (stereo not given) | > 100 µM | > 100 µM | > 100 µM | > 100 µM | > 100 µM | > 100 µM | > 100 µM | > 100 µM | > 100 µM | – | – | – | – | – | – | – | – | – | – | –
Cc1ccc(-n2c3nc(=O)n(C)c(=O)c-3nc3ccccc32)cc1 | > 100 µM | 23.7 µM | 35.8 µM | 32.7 µM | 27.2 µM | 11.8 µM | – | 39.7 µM | 26.9 µM | – | – | – | – | – | – | – | – | – | – | –
CCNCCC1(CC)C(=O)NC(=O)NC1=O | > 100 µM | > 100 µM | – | > 100 µM | > 100 µM | > 100 µM | > 100 µM | > 100 µM | > 100 µM | – | – | – | – | – | – | – | – | – | – | > 100 µM
C[C@H]1CC[C@H]([C@@H](C)[C@H]2[C@@H](O)C[C@H]3[C@@H]4CC[C@H]5C[C@@H](O)CC[C@]5(C)[C@H]4CC[C@]23C)NC1 | 37.1 µM | 36.6 µM | 20.2 µM | 59.2 µM | 33 µM | 32.5 µM | 36.1 µM | – | 35.7 µM | – | – | – | – | – | – | – | – | – | – | 32.5 µM
CCC(=O)C1(c2ccccc2)CCN(C)CC1 | > 100 µM | > 100 µM | > 100 µM | > 100 µM | > 100 µM | > 100 µM | > 100 µM | > 100 µM | > 100 µM | – | – | – | – | – | – | – | – | – | – | –
C[N+](C)(C)CC(=O)N/N=C(\CCC(=O)NCCc1ccccc1)CC(=O)c1ccccc1 | > 100 µM | > 100 µM | > 100 µM | > 100 µM | > 100 µM | > 100 µM | – | – | > 100 µM | – | – | – | – | – | – | – | – | – | – | –
CN(C)c1ncnc2c1Cc1ccccc1C(=O)N2C | > 100 µM | – | > 100 µM | > 100 µM | > 100 µM | > 100 µM | > 100 µM | > 100 µM | > 100 µM | – | – | – | – | – | – | – | – | – | – | –
CC1CN(c2ccc(Cl)cc2)CC(C)(C)OC(=O)O1 (stereo not given) | > 100 µM | > 100 µM | > 100 µM | > 100 µM | > 100 µM | > 100 µM | > 100 µM | > 100 µM | > 100 µM | – | – | – | – | – | – | – | – | – | – | –
Nc1nc(Cl)cc(NCCCCCNc2cc(Cl)nc(N)n2)n1 | > 100 µM | > 100 µM | > 100 µM | > 100 µM | – | > 100 µM | > 100 µM | > 100 µM | > 100 µM | – | – | – | – | – | – | – | – | – | – | –
O=C(NCCO)c1cc2c(cn1)[nH]c1ccccc12 | 33.7 µM | > 100 µM | > 100 µM | > 100 µM | 43.9 µM | > 100 µM | > 100 µM | > 100 µM | > 100 µM | – | – | – | – | – | – | – | – | – | – | –
CSc1nc(NC2OCC(OC(C)=O)C(OC(C)=O)C2OC(C)=O)c(N=C(C)C(C)=O)c(=O)n1C (stereo not given) | > 100 µM | > 100 µM | > 100 µM | > 100 µM | > 100 µM | > 100 µM | – | > 100 µM | > 100 µM | – | – | – | – | – | – | – | – | – | – | –
N=C(N)/N=C(\N)c1c(-c2cc(O)ccc2O)nc2sccn12 | 38.9 µM | 74.8 µM | – | 37.9 µM | 35.4 µM | 34.1 µM | 46 µM | – | 62.7 µM | 19.9 µM | 26 µM | – | 19.8 µM | 15.9 µM | 19.5 µM | 21.4 µM | – | 25.1 µM | 30.4 µM | 84.3 µM
O=C(CSc1nc2ccccc2nc1-c1ccccc1)Nc1ccc(Cl)cc1 | 32.3 µM | > 100 µM | – | > 100 µM | 78 µM | > 100 µM | > 100 µM | 59.4 µM | > 100 µM | 16 µM | 76.7 µM | – | 23.7 µM | 27.2 µM | 30.5 µM | 60.8 µM | 18.7 µM | > 100 µM | 33.5 µM | > 100 µM
